Assay results from patent US20250195521A1 (Revolution Medicines, Inc., priority 2020, published 2025).

Columns and labels:
[1] = molecular target: K-Ras G12C(GMP-PNP) binding to BRAF RBD (Homo sapiens (Human), UniProt P01116+P62937, G12C); test: Disruption of BRAF RBD interaction with K-Ras (FRET / MOA assay), K-Ras G12C; assay type: biochemical; details: read-out: KRAS G12C FRET IC50
Method in brief: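 First, test compounds in a 10-point 3-fold series (30 μM final top) were incubated for 3 hours at 25° C with nucleotide-loaded Ras, cyclophilin A and a BRAF RBD construct. Next, Eu anti-His and allophycocyanin anti-GST detection reagents were added for 1.5 hours. Finally, IC50s were derived from loss of TR-FRET signal against DMSO.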

[2] = molecular target: KRAS G12S binding to BRAF RBD (Homo sapiens (Human), UniProt P01116+P62937, G12S); test: Ras-Raf disruption/FRET/MOA assay, KRAS G12S; assay type: biochemical
Source text: (§1) Note—The following protocol describes a procedure for monitoring disruption of K-Ras G12C(GMP-PNP) binding to BRAF^RBD by a compound of the invention. This protocol may also be executed substituting other Ras proteins or nucleotides.
(§2) The purpose of this biochemical assay was to measure the ability of test compounds to facilitate ternary complex formation between a nucleotide-loaded K-Ras isoform and Cyclophilin A; the resulting ternary complex disrupts binding to a BRAF^RBD construct, inhibiting K-Ras signaling through a RAF effector. Data is reported as IC50 values.
(§3) Compound was present in plate wells as a 10-point 3-fold dilution series starting at a final concentration of 30 μM. After incubation at 25° C. for 3 hours, a mixture of Anti-His Eu—W1024 and anti-GST allophycocyanin was then added to assay sample wells at final concentrations of 10 nM and 50 nM, respectively, and the reaction incubated for an additional 1.5 hours. […] Compounds that facilitate disruption of a K-Ras: RAF complex were identified as those eliciting a decrease in the TR-FRET ratio relative to DMSO control wells.

[3] = molecular target: KRAS G12V binding to BRAF RBD (Homo sapiens (Human), UniProt P01116+P62937, G12V); test: Ras-Raf disruption/FRET/MOA assay, KRAS G12V; assay type: biochemical; details: read-out: KRAS G12V FRET IC50
Source text: as §1, §2, §3

KRAS G12S = KRAS G12S (Homo sapiens (Human), UniProt P01116+P62937, G12S); test: Ras-Raf disruption/FRET/MOA assay (BRAF RBD, Cyclophilin A); assay type: biochemical; details: read-out: KRAS G12S FRET IC50
Method in brief: (§4)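 TR-FRET read after 1.5 h with 10 nM anti-His Eu-W1024 and 50 nM anti-GST APC, following 3 h at 25 °C of GMPPNP-loaded His6-Ras (12.5 nM), GST-BRAF RBD (50 nM) and Cyclophilin A (25 μM) with compound from 30 μM final, 10 points, 3-fold. IC50 reported; pH 7.3 HEPES, 100 mM NaCl.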

KRAS G12C = KRAS G12C (Homo sapiens (Human), UniProt P01116+P62937, G12C); test: as above; assay type: biochemical; details: read-out: KRAS G12C FRET IC50
Method in brief: as §4

NRAS Q61R = NRAS Q61R (Homo sapiens (Human), UniProt P01111+P62937, Q61R); test: as above; assay type: biochemical
Method in brief: (§5)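 Ras-GMPPNP (12.5 nM), BRAF RBD (50 nM) and 25 μM Cyclophilin A were incubated with compound for 3 h at 25° C, then detected 1.5 h with anti-His Eu and anti-GST APC; IC50 values follow from the reduced TR-FRET ratio.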

KRAS G12D = KRAS G12D (Homo sapiens (Human), UniProt P01116+P62937, G12D); test: as above; assay type: biochemical; details: read-out: KRAS G12D FRET IC50
Method in brief: as §4

KRAS G13D = KRAS G13D (Homo sapiens (Human), UniProt P01116+P62937, G13D); test: as above; assay type: biochemical; details: read-out: KRAS G13D FRET data IC50
Method in brief: as §4

KRAS G13C = KRAS G13C (Homo sapiens (Human), UniProt P01116+P62937, G13C); test: as above; assay type: biochemical; details: read-out: KRAS G13C FRET IC50
Method in brief: as §4

NRAS WT = NRAS WT (Homo sapiens (Human), UniProt P01111+P62937); test: as above; assay type: biochemical
Method in brief: as §5

NRAS Q61K = NRAS Q61K (Homo sapiens (Human), UniProt P01111+P62937, Q61K); test: as above; assay type: biochemical
Method in brief: as §5

NRAS G12C = NRAS G12C (Homo sapiens (Human), UniProt P01111+P62937, G12C); test: as above; assay type: biochemical; details: read-out: NRAS G12C FRET data IC50
Method in brief: as §5

KRAS WT = KRAS WT (Homo sapiens (Human), UniProt P01116+P62937); test: as above; assay type: biochemical; details: read-out: KRAS WT FRET data IC50
Method in brief: as §4

KRAS G12V = KRAS G12V (Homo sapiens (Human), UniProt P01116+P62937, G12V); test: as above; assay type: biochemical; details: read-out: KRAS G12V FRET IC50
Method in brief: as §4

KRAS Q61H = KRAS Q61H (Homo sapiens (Human), UniProt P01116+P62937, Q61H); test: as above; assay type: biochemical
Method in brief: as §4

NCI-H358 (K-Ras G12C) = test: CellTiter-Glo cell viability assay, NCI-H358; assay type: cell-based, human; details: Homo sapiens, NCI-H358, 120 h, 5-day treatment; read-out: H358 Cell Viability assay data (K-Ras G12C, IC50)
Method in brief: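 Viability is measured as ATP-dependent luminescence (CellTiter-Glo) five days into compound treatment. Responses are normalized to vehicle (DMSO) wells and fitted by four-parameter logistic regression.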

[4] = molecular target: KRAS WT binding to BRAF RBD (Homo sapiens (Human), UniProt P01116+P62937); test: Ras-Raf disruption/FRET/MOA assay, KRAS WT; assay type: biochemical
Source text: Disruption of B-Raf Ras-binding Domain (BRAF^RBD) Interaction with K-Ras by Compounds of the Invention (also called a FRET assay or an MOA assay)
as §1, §2
as §3, with “In assay buffer containing 25 mM HEPES pH 7.3, 0.002% Tween20, 0.1% BSA, 100 mM NaCl and 5 mM MgCl2, tagless Cyclophilin A, His6-K-Ras-GMPPNP, and GST-BRAF^RBD were combined in a 384-well assay plate at final concentrations of 25 μM, 12.5 nM and 50 nM, respectively. Compound was” for “Compound was”

[5] = tested on: Capan-1 cells (K-Ras G12V); test: CellTiter-Glo cell viability, Capan-1; assay type: cell-based, human; details: Homo sapiens, CAPAN-1, 120 h, K-Ras G12V, 5-day treatment; read-out: Capan-1 Cell Viability IC50
Method in brief: (§6)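 Viability is read as luminescence after five days of compound exposure, with plates first equilibrated to room temperature for roughly 30 minutes. Each signal is expressed as a percentage of the mean DMSO control, and curves are fitted by four-parameter logistic regression.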

[6] = tested on: NCI-H358 cells (K-Ras G12C); test: CellTiter-Glo cell viability, NCI-H358; assay type: cell-based, human; details: Homo sapiens, NCI-H358, 120 h, K-Ras G12C, 5-day treatment; read-out: H358 Cell Viability IC50
Method in brief: as §6

[7] = tested on: K-Ras G12C (NCI-H358 cells); test: Potency assay: pERK in NCI-H358 cells; assay type: cell-based, human; details: Homo sapiens; NCI-H358 cells, 4 hours; read-out: pERK EC50 (H358 KRAS G12C)
Method in brief: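 Cells plated the day before were exposed for 4 h at 37° C, 5% CO2 to a 10-point, 3-fold DMSO dilution series (10 mM top stock), in duplicate. Phospho-ERK was read by AlphaLISA SureFire Ultra or by In-Cell Western with DRAQ5 DNA stain, and IC50 came from a 4-parameter sigmoidal fit.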

[8] = molecular target: KRAS G13D binding to BRAF RBD (Homo sapiens (Human), UniProt P01116+P62937, G13D); test: Ras-Raf disruption/FRET/MOA assay, KRAS G13D; assay type: biochemical
Method in brief: (§7)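 TR-FRET ratio drop relative to DMSO wells marks disruption of the Ras–RAF complex, reported as IC50. Compounds promote a Ras(nucleotide)–cyclophilin A ternary complex that blocks BRAF RBD binding; dosing was 10 points, 3-fold, top 30 μM final, 3 h at 25° C before detection.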

[9] = molecular target: NRAS G12C binding to BRAF RBD (Homo sapiens (Human), UniProt P01111+P62937, G12C); test: Ras-Raf disruption/FRET/MOA assay, NRAS G12C; assay type: biochemical
Method in brief: as §7

Sequence of KRAS G12V binding to BRAF RBD (P01116 other isoform, or with tags, fused parts or gaps G12V): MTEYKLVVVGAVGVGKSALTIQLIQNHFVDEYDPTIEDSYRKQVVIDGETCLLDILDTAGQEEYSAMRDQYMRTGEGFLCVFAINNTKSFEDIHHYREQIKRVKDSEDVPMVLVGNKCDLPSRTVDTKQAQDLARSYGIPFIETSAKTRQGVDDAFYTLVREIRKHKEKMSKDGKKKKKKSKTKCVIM
Sequence of KRAS G12V binding to BRAF RBD (P62937 whole entry): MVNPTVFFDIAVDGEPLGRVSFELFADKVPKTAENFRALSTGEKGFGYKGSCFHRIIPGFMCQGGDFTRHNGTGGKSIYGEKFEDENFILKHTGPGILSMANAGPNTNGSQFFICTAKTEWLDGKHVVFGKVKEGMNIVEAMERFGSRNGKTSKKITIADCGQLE
Sequence of KRAS G12S binding to BRAF RBD (P01116 other isoform, or with tags, fused parts or gaps G12S): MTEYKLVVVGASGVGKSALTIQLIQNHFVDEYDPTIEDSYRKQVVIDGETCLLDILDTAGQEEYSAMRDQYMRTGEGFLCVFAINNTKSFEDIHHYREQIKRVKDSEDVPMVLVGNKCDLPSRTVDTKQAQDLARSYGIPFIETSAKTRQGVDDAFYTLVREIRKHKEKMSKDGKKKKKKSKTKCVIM
Sequence of KRAS G12S binding to BRAF RBD (P62937 whole entry): as the sequence (P62937 whole entry) above
Sequence of K-Ras G12C(GMP-PNP) binding to BRAF RBD (P01116 other isoform, or with tags, fused parts or gaps G12C): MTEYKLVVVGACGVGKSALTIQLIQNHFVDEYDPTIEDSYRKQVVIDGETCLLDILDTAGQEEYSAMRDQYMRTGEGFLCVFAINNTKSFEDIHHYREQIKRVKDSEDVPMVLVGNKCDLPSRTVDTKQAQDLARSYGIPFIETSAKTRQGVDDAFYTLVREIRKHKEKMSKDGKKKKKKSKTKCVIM
Sequence of K-Ras G12C(GMP-PNP) binding to BRAF RBD (P62937 whole entry): as the sequence (P62937 whole entry) above
Sequence of KRAS WT binding to BRAF RBD (P01116 other isoform, or with tags, fused parts or gaps): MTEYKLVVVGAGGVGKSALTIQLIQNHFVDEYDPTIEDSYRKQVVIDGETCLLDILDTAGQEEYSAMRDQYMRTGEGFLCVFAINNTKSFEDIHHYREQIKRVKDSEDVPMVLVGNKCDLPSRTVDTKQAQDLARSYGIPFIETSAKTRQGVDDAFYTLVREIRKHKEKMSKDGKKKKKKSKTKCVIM
Sequence of KRAS WT binding to BRAF RBD (P62937 whole entry, the tested form may be a part): as the sequence (P62937 whole entry) above
Sequence of KRAS G12V (P01116 other isoform, or with tags, fused parts or gaps G12V): as the sequence (P01116 other isoform, or with tags, fused parts or gaps G12V) above
Sequence of KRAS G12V (P62937 whole entry): as the sequence (P62937 whole entry) above
Sequence of KRAS G13C (P01116 other isoform, or with tags, fused parts or gaps G13C): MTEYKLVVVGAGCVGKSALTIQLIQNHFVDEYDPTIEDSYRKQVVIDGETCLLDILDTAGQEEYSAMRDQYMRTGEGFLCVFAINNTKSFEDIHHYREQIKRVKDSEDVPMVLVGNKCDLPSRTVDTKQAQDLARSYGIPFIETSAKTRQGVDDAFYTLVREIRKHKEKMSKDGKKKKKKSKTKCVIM
Sequence of KRAS G13C (P62937 whole entry): as the sequence (P62937 whole entry) above
Sequence of NRAS Q61R (P01111 whole entry Q61R): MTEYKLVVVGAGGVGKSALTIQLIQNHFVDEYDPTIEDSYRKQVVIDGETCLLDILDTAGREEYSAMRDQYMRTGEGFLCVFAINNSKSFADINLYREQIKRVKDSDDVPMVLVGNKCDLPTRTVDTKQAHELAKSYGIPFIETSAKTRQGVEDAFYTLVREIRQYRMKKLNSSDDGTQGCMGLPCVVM
Sequence of NRAS Q61R (P62937 whole entry): as the sequence (P62937 whole entry) above
Sequence of NRAS Q61K (P01111 whole entry Q61K): as the sequence (P01111 whole entry Q61R) above, with R61K counted along it
Sequence of NRAS Q61K (P62937 whole entry): as the sequence (P62937 whole entry) above
Sequence of KRAS G12S (P01116 other isoform, or with tags, fused parts or gaps G12S): as the sequence (P01116 other isoform, or with tags, fused parts or gaps G12S) above
Sequence of KRAS G12S (P62937 whole entry): as the sequence (P62937 whole entry) above
Sequence of KRAS G12D (P01116 other isoform, or with tags, fused parts or gaps G12D): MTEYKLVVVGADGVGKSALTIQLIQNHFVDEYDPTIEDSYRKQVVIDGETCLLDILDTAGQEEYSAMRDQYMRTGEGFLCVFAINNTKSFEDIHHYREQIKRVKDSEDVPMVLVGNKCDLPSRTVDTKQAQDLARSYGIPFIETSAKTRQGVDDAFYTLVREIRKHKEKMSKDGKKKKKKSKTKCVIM
Sequence of KRAS G12D (P62937 whole entry): as the sequence (P62937 whole entry) above
Sequence of KRAS G12C (P01116-2 other isoform, or with tags, fused parts or gaps G12C): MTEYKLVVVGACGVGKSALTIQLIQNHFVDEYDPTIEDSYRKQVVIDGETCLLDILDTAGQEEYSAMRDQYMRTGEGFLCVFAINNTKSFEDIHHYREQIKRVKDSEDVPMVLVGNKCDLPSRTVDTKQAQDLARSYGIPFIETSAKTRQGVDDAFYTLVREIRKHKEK
Sequence of KRAS G12C (P62937 whole entry): as the sequence (P62937 whole entry) above
Sequence of KRAS Q61H (P01116 other isoform, or with tags, fused parts or gaps Q61H): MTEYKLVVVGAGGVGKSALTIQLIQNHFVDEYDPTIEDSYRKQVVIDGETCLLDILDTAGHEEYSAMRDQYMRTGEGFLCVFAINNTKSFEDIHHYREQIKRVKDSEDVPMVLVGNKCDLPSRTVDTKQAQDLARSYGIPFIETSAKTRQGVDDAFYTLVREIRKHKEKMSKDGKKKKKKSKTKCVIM
Sequence of KRAS Q61H (P62937 whole entry): as the sequence (P62937 whole entry) above
Sequence of KRAS WT (P01116 other isoform, or with tags, fused parts or gaps): as the sequence (P01116 other isoform, or with tags, fused parts or gaps) above
Sequence of KRAS WT (P62937 whole entry): as the sequence (P62937 whole entry) above

Row | SMILES | IC50 [1] [nM] | IC50 [2] [nM] | IC50 [3] [nM] | IC50 (NCI-H358 (K-Ras G12C)) [nM] | IC50 [4] [nM] | IC50 [6] [nM] | EC50 [7] [nM] | other results
1 | CCn1c(-c2cccnc2[C@H](C)OC)c2c3cc(ccc31)-c1cc(O)cc(c1)C[C@H](NC(=O)C(C1CC1)C1CC1)C(=O)N1CCC[C@H](N1)C(=O)OCC(C)(C)C2 [Compound A184] | < 10 | 10 to 100 | 10 to 100 |  |  |  |  | 
2 | CCn1c(-c2cccnc2[C@H](C)OC)c2c3cc(ccc31)-c1csc(n1)C[C@H](NC(=O)N1CC[C@@H]1COC)C(=O)N1CCC[C@H](N1)C(=O)OCC(C)(C)C2 [Compound A264] | 10 to 100 | 10 to 100 | 10 to 100 | 10 to 100 | 10 to 100 | 100 to 1000 |  | IC50 (KRAS G12S): 100 to 1000 nM; IC50 (KRAS G12C): 10 to 100 nM; IC50 (NRAS Q61R): 100 to 1000 nM; IC50 (KRAS G12D): 100 to 1000 nM; IC50 (KRAS G13D): 100 to 1000 nM; IC50 (KRAS G13C): 100 to 1000 nM; IC50 (NRAS WT): 100 to 1000 nM; IC50 (NRAS Q61K): 100 to 1000 nM; IC50 (NRAS G12C): 10 to 100 nM; IC50 (KRAS WT): 100 to 1000 nM; IC50 (KRAS G12V): 10 to 100 nM; IC50 (KRAS Q61H): 100 to 1000 nM; IC50 [5]: 100 to 1000 nM
3 | CCn1c(-c2cccnc2[C@H](C)OC)c2c3cc(ccc31)-c1cc(O)cc(c1)C[C@H](NC(=O)[C@H](C(C)C)N(C)C(=O)[C@H]1CCC(C(=O)C#CCOC)C1)C(=O)N1CCC[C@H](N1)C(=O)OCC(C)(C)C2 (stereo partly drawn) [Compound A266] | < 10 | 10 to 100 | 10 to 100 | < 10 |  |  | < 5000 | IC50 [8]: 100 to 1000 nM; IC50 [9]: < 10 nM
4 | CCn1c(-c2cccnc2[C@H](C)OC)c2c3cc(ccc31)-c1csc(n1)C[C@H](NC(=O)[C@H](C(C)C)N(C)C(=O)N1CCCC[C@@H](N(C)C)C1)C(=O)N1CCC[C@H](N1)C(=O)OCC(C)(C)C2 [Compound A492] | 10 to 100 | 10 to 100 | 10 to 100 | < 10 | 10 to 100 | 10 to 100 | < 5000 | 
